Data on 14 compounds can be found in PubChem BioAssay AID192 (DTP/NCI, 2004).

Values joined by “and” are separate entries in the source; they are usually repeats but may differ in a detail not shown here. Identical values can stand only once. Toxic doses and inconclusive results are not listed.

In this assay the test system is BDF1 mice, B16 melanoma ip, median survival T/C. Description: NCI In Vivo Anticancer Drug Screen. Data for tumor model B16 Melanoma (intraperitoneal) in B6D2F1 (BDF1) mice. The following applies: endpoint: median survival time, higher = longer survival. A digest of the protocol:
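Transplantable tumor model; survival or tumor size measured; reported as T/C, treated over vehicle control.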

[1] abbreviates: dose: 100.0 mg/kg/injection, schedule: Q01DX009 (ip), vehicle: saline.
[2] abbreviates: dose: 200.0 mg/kg/injection, schedule: Q01DX009 (ip), vehicle: saline.
Where [3] appears, read: dose: 400.0 mg/kg/injection, schedule: Q01DX009 (ip), vehicle: saline.
Where [4] appears, read: dose: 100.0 mg/kg/injection, schedule: Q01DX009 (ip), vehicle: Klucel (hydroxypropylcellulose) (HPC).
The mark [5] stands for this setting: dose: 200.0 mg/kg/injection, schedule: Q01DX009 (ip), vehicle: Klucel (hydroxypropylcellulose) (HPC).
[6] abbreviates: dose: 400.0 mg/kg/injection, schedule: Q01DX009 (ip), vehicle: Klucel (hydroxypropylcellulose) (HPC).
Where [7] appears, read: dose: 12.5 mg/kg/injection, schedule: Q01DX009 (ip), vehicle: saline with Tween-80.
The mark [8] stands for this setting: dose: 12.5 mg/kg/injection, schedule: Q01DX009 (ip), vehicle: saline.
Setting [9] is: dose: 100.0 mg/kg/injection, schedule: Q01DX009 (ip), vehicle: saline with Tween-80.
Setting [10] is: dose: 200.0 mg/kg/injection, schedule: Q01DX009 (ip), vehicle: saline with Tween-80.
The mark [11] stands for this setting: dose: 400.0 mg/kg/injection, schedule: Q01DX009 (ip), vehicle: saline with Tween-80.

For `CCCCCCCC(=O)N/N=C(\CO)[C@]1(O)Cc2c(O)c3c(c(O)c2[C@@H](OC2CC(N)C(O)C(C)O2)C1)C(=O)c1c(OC)cccc1C3=O` (stereo partly specified), the T/C by setting is: (dose: 3.13 mg/kg/injection, schedule: Q01DX001 (ip), vehicle: water) 168 % of control; (dose: 6.25 mg/kg/injection, schedule: Q01DX001 (ip), vehicle: water) 157 % of control and 200 % of control; (dose: 12.5 mg/kg/injection, schedule: Q01DX001 (ip), vehicle: water) 173 % of control and 212 % of control; (dose: 25.0 mg/kg/injection, schedule: Q01DX001 (ip), vehicle: water) 174 % of control and 220 % of control and 231 % of control; (dose: 50.0 mg/kg/injection, schedule: Q01DX001 (ip), vehicle: water) 91 % of control and 228 % of control and 236 % of control.

Consider `Cc1cc(=O)[nH]c2c(C)cc(-c3cc(C)c4[nH]c(=O)cc(C)c4c3)cc12`, for which the T/C under setting [1] is 102 % of control, the T/C under setting [2] was 108 % of control and the T/C under setting [3] is 105 % of control.

Regarding `CCOc1ccccc1NC(=O)Nc1cccc(Cl)c1`, the T/C by setting is: under setting [4], 106 % of control; under setting [5], 96 % of control; under setting [6], 106 % of control.

For `COc1cc(NCc2ccc3nc(N)nc(N)c3c2C)cc(OC)c1OC`, the T/C is, setting by setting: (dose: 0.62 mg/kg/injection, schedule: Q01DX009 (ip), vehicle: sodium bicarbonate) 104 % of control; (dose: 1.25 mg/kg/injection, schedule: Q01DX009 (ip), vehicle: sodium bicarbonate) 101 % of control and 117 % of control; (dose: 2.5 mg/kg/injection, schedule: Q01DX009 (ip), vehicle: sodium bicarbonate) 107 % of control and 124 % of control; (dose: 5.0 mg/kg/injection, schedule: Q01DX009 (ip), vehicle: sodium bicarbonate) 124 % of control; (dose: 10.0 mg/kg/injection, schedule: Q01DX009 (ip), vehicle: sodium bicarbonate) 155 % of control; (dose: 20.0 mg/kg/injection, schedule: Q01DX009 (ip), vehicle: sodium bicarbonate) 150 % of control and 164 % of control.

In the case of `CS(=O)(=O)OCCCCOS(C)(=O)=O`, the T/C is 108 % of control (dose: 3.13 mg/kg/injection, schedule: Q01DX009 (ip), vehicle: saline); 105 % of control (dose: 6.25 mg/kg/injection, schedule: Q01DX009 (ip), vehicle: saline); 106 % of control and 107 % of control (dose: 12.5 mg/kg/injection, schedule: Q01DX009 (ip), vehicle: Klucel (hydroxypropylcellulose) (HPC)); 97 % of control and 100 % of control and 102 % of control under setting [7]; 95 % of control and 105 % of control under setting [8].

As for `Nc1cccc(=O)[nH]1`, the T/C is 90 % of control under setting [8]; 98 % of control (dose: 25.0 mg/kg/injection, schedule: Q01DX009 (ip), vehicle: saline); 98 % of control (dose: 50.0 mg/kg/injection, schedule: Q01DX009 (ip), vehicle: saline); 98 % of control under setting [1]; 90 % of control under setting [2]; 92 % of control under setting [3].

`Nc1nc([Se])c2ncn(C3OC(CO)C(O)C3O)c2n1` (stereo unspecified): the T/C is, setting by setting: (dose: 1.0 mg/kg/injection, schedule: Q01DX009 (ip), vehicle: saline) 114 % of control; (dose: 2.0 mg/kg/injection, schedule: Q01DX009 (ip), vehicle: saline) 116 % of control and 117 % of control; (dose: 4.0 mg/kg/injection, schedule: Q01DX009 (ip), vehicle: saline) 114 % of control; (dose: 8.0 mg/kg/injection, schedule: Q01DX009 (ip), vehicle: saline) 116 % of control and 117 % of control; (dose: 16.0 mg/kg/injection, schedule: Q01DX009 (ip), vehicle: saline) 121 % of control.

For the compound `Cc1cc2cc3c(C)cc(=O)oc3c(C)c2o1`, the T/C reads like this: under setting [9], 119 % of control; under setting [10], 117 % of control; under setting [11], 100 % of control.

Regarding `CCCCOC(=O)C1C(C(=O)OCCCC)C2(Cl)C(Cl)=C(Cl)C1(Cl)C2(Cl)Cl` (stereo unspecified), the T/C is 114 % of control under setting [4], 116 % of control under setting [5] and 113 % of control under setting [6].

Regarding `NC(=O)C(N)=O`, the T/C under setting [4] is 103 % of control and the T/C under setting [5] was 96 % of control.

With `O=NN(CCF)C(=O)N[C@H]1CCCC[C@H]1O`, the T/C (dose: 3.75 mg/kg/injection, schedule: Q01DX001 (ip), vehicle: saline) was 100 % of control; the T/C (dose: 7.5 mg/kg/injection, schedule: Q01DX001 (ip), vehicle: saline) is 105 % of control; the T/C (dose: 15.0 mg/kg/injection, schedule: Q01DX001 (ip), vehicle: saline) is 101 % of control; the T/C (dose: 60.0 mg/kg/injection, schedule: Q01DX001 (ip), vehicle: saline) is 222 % of control.

In the case of `COc1ccc(C(=O)c2no[n+]([O-])c2C(=O)c2ccc(OC)cc2)cc1`, the T/C under setting [7] was 95 % of control; the T/C (dose: 25.0 mg/kg/injection, schedule: Q01DX009 (ip), vehicle: saline with Tween-80) is 107 % of control; the T/C (dose: 50.0 mg/kg/injection, schedule: Q01DX009 (ip), vehicle: saline with Tween-80) is 101 % of control; the T/C under setting [9] is 95 % of control; the T/C under setting [10] is 87 % of control; the T/C under setting [11] was 113 % of control.

Take `ClC1(c2ccccc2)c2ccc(Br)cc2-c2cc(Br)ccc21`: the T/C runs as follows: under setting [9], 89 % of control; under setting [10], 92 % of control.

For the compound `CCCCCCCCCCCC1=NCCN1`, the T/C was 94 % of control (dose: 3.0 mg/kg/injection, schedule: Q01DX009 (ip), vehicle: saline with Tween-80); 97 % of control (dose: 6.0 mg/kg/injection, schedule: Q01DX009 (ip), vehicle: saline with Tween-80); 88 % of control (dose: 12.0 mg/kg/injection, schedule: Q01DX009 (ip), vehicle: saline with Tween-80).
